Here are results for 16 compounds from patent US20230303570A1, “KINASE INHIBITORS AND USES THEREOF” (ABM Therapeutics Corporation, priority 2020, published 2023).

Common to all, as to type: biochemical
In one assay the target is HPK1 (MAP4K1) (Homo sapiens, UniProt Q92918). As to the kind of experiment: HPK1 (MAP4K1) kinase Lantha screen assay. The gist of the method:
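Recombinant MAP4K1 preincubated 10 min with compound (6-point dilution, duplicates) in 50 mM HEPES pH 7.5, 10 mM MgCl2, then reacted with Fluorescein-PKC substrate and ATP for 90 min at room temperature. Antibody detection solution stopped reaction; after 60 min, TR-FRET read at ex 340 nm, em 520/495 nm.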

Another assay addresses RET (Homo sapiens, UniProt P07949). Nature of the assay: RET kinase mobility shift assay. As to the method: (§1) The effect of the compounds on the activity of cKit, RET and AXL kinases were assessed by Mobility shift assay. • 1. 1× kinase base buffer and stop buffer for testing kinases were prepared • 1-1) 1× Kinase base buffer (50 mM HEPES, pH 7.5, 0.01% Triton X-100) • 1-2) Stop buffer (100 mM HEPES, pH 7.5, 0.015% Brij-35, 0.2% Coating Reagent #3, 50 mM EDTA) • 2. Compound and assay plate preparation: the compound was diluted to 50× of the final desired highest inhibitor concentration in reaction by 100% DMSO. 100 μl of this compound dilution was transferred to a well in a 96-well plate. For example, if the highest desired concentration was 5 μM, then 250 μM of compound DMSO solution was prepared in this step. For all compounds, the compound was serially diluted by transferring 10 μl to 70 μl of 100 DMSO in the next well and so forth for a total of 5 concentrations. 100 μl of 100% DMSO was added to two empty wells for no compound control and no enzyme control in the same 96-well plate. The plate was labeled as source plate. The intermediate plate was prepared by transferring 10 μl of compound from source plate to a new 96-well plate as the intermediate plate, adding 90 μl of 1× kinase buffer to each well of the intermediate plate, mixing the compounds in intermediate plate for 10 min on shaker. 5 μl of each well from the 96-well intermediate plate were transferred to a 384-well plate in duplicates. For example, A1 of the 96-well plate was transferred to A1 and A2 of the 384-well plate. A2 of the 96-well plate was transferred to A3 and A4 of the 384-well plate, and so on. • 4. Kinase reaction: The assay plate already contained 5 μl of compound in 10% DMSO. A 2.5× enzyme solution was prepared by adding kinases (cKit, RET, or AXL) and DTT in 1× kinase base buffer. 2.5× enzyme solution was transferred to the assay plate (by adding 10 μl of 2.5× enzyme solution to each well of the 384-well assay plate). The plate was incubated at room temperature for 10 min. 2.5× peptide solution was prepared by adding FAM-labeled peptide, ATP, MgCl2 in the 1× kinase base buffer. 2.5× peptide solution was added to the assay plate by adding 10 μl of 2.5× peptide solution to each well of the 384-well assay plate. The plate was incubated at 28° C. for the specified period of time. 25 μl of stop buffer was added to stop reaction. Data was collected on Caliper.

The target in a further assay is T1, Axl (Homo sapiens, UniProt P30530).
T1 sequence (P30530 26-894): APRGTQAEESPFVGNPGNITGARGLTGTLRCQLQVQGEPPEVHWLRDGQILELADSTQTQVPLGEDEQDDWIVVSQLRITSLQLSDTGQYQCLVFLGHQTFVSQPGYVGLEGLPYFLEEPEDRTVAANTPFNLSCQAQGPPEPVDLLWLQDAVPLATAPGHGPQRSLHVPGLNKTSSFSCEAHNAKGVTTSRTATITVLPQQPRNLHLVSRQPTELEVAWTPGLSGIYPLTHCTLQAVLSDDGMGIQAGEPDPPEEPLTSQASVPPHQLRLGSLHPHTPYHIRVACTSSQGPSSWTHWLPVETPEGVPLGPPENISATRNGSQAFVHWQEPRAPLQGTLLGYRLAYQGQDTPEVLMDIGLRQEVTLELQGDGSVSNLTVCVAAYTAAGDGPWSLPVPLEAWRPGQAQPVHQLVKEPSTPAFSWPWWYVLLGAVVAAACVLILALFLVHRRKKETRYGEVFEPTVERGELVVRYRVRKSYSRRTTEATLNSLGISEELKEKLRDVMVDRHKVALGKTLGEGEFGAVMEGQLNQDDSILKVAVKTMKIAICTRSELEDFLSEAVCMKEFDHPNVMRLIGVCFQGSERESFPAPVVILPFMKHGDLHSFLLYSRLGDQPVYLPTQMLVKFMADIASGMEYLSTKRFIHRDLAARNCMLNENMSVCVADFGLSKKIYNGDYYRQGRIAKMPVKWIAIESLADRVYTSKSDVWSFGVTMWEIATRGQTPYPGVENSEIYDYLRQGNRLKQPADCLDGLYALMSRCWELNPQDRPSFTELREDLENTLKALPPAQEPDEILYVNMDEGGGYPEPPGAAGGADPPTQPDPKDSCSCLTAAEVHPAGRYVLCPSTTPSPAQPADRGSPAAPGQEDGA
As to the kind of experiment: AXL kinase mobility shift assay. As for the experimental part: as §1

In the next assay the target is c-Kit (Homo sapiens, UniProt P10721). Nature of the assay: cKit kinase mobility shift assay. As for the experimental part: as §1
Sequence of c-Kit (P10721 26-976): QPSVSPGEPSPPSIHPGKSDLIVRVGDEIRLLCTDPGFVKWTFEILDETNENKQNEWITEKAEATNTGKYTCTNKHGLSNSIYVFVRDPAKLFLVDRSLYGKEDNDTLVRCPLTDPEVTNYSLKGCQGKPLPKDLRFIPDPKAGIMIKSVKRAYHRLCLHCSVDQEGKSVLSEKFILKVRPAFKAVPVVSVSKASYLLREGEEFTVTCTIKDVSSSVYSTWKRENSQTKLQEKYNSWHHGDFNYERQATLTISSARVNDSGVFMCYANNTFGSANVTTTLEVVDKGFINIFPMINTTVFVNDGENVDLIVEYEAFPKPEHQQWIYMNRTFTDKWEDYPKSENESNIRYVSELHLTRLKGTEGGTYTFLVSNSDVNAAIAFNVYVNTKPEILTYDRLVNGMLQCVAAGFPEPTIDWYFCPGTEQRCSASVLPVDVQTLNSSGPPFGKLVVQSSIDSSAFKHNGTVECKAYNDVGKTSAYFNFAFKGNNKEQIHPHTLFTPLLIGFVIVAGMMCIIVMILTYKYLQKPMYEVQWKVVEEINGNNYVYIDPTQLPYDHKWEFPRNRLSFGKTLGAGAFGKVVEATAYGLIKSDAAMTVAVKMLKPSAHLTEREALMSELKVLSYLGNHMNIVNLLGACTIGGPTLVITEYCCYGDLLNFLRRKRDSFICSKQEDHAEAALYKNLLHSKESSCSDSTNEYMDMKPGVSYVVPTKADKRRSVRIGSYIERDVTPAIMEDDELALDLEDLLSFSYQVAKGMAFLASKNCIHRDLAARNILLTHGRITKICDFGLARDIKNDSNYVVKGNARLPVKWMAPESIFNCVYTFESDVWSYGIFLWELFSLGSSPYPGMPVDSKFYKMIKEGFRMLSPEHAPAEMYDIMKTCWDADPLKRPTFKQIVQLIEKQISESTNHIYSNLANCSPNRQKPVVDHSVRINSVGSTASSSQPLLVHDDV

Sequence of RET (P07949 29-1114, species assumed): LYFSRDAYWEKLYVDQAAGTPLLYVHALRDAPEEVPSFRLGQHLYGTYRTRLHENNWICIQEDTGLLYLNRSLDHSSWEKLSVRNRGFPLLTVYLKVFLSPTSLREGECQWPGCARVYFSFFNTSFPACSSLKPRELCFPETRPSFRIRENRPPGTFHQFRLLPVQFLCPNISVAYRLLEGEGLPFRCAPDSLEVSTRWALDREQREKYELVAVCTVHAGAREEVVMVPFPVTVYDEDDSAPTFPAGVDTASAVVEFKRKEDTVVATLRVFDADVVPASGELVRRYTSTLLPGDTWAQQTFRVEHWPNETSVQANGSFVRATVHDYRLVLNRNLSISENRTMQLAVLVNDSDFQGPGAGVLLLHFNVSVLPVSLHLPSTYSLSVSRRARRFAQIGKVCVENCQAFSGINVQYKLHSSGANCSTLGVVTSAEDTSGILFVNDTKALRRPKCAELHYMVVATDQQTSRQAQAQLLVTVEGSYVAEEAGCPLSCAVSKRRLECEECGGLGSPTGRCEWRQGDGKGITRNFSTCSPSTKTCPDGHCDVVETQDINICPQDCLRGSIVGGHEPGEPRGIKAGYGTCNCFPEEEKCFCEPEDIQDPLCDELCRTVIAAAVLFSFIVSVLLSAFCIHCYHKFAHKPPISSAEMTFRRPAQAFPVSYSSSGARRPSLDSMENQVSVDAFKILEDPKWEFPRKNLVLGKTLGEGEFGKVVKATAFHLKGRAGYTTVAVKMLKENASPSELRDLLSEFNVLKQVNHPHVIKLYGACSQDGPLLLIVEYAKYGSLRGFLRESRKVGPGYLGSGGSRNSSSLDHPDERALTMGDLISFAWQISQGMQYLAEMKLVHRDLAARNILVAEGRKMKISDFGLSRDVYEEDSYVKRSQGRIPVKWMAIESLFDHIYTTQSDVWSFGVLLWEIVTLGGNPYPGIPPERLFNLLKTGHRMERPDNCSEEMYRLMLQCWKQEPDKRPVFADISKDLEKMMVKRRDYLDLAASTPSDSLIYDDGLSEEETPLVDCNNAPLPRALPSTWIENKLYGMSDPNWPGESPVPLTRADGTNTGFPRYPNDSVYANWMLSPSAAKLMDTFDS
Sequence of HPK1 (MAP4K1) (Q92918 whole entry, species assumed): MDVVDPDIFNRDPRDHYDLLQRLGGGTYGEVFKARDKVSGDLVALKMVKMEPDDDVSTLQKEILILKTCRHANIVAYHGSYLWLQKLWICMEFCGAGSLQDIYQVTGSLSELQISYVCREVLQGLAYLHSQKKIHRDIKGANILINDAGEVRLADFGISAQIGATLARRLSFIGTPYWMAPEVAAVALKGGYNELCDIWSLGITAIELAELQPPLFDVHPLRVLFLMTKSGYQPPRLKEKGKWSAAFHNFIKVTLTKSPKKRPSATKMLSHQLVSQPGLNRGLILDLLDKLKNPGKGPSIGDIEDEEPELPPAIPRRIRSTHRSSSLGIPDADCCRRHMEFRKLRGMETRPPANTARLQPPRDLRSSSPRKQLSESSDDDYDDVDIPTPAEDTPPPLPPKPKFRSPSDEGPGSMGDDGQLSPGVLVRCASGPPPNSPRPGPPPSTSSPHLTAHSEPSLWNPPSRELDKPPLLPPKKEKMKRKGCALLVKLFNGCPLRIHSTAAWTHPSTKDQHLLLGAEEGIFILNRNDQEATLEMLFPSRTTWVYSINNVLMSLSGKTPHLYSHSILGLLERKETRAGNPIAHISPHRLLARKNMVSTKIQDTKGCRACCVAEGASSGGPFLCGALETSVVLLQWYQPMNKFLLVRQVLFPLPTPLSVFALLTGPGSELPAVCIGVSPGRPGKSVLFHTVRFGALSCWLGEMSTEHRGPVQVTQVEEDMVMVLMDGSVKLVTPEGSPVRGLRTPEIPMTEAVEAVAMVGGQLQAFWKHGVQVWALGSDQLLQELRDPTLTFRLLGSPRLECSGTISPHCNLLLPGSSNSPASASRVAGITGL

For orientation: IC50 means the concentration that inhibits the measured activity by half. Regarding `Cc1ccc(NC(=O)c2cc(C(F)(F)F)ccn2)cc1C1=Cc2cnc(NCCF)nc2N2CCN=C12` [Compound 111, N-(3-(2-((2-fluoroethyl)amino)-8,9-dihydroimidazo[1′,2′:1,6]pyrido[2,3-d]pyrimidin-6-yl)-4-methylphenyl)-4-(trifluoromethyl)picolinamide], the figures for the IC50 against HPK1 (MAP4K1) and on RET were 0.1 to 10 µM and under 0.1 µM, respectively.
Regarding `CNc1ncc2c(n1)N1CCN=C1C(c1cc(NC(=O)c3cc(C(F)(F)F)ccn3)ccc1C)=C2C` [Compound 120, N-(4-methyl-3-(5-methyl-2-(methylamino)-8,9-dihydroimidazo[1′,2′:1,6]pyrido[2,3-d]pyrimidin-6-yl)phenyl)-4-(trifluoromethyl)picolinamide], the IC50 against HPK1 (MAP4K1) and on RET was 0.1 to 10 µM throughout.
For `CNc1ncc2c(n1)N1CCN=C1C(c1cc(NC(=O)c3cc(C(F)(F)F)ccn3)ccc1F)=C2C` [Compound 121, N-(4-fluoro-3-(5-methyl-2-(methylamino)-8,9-dihydroimidazo[1′,2′:1,6]pyrido[2,3-d]pyrimidin-6-yl)phenyl)-4-(trifluoromethyl)picolinamide], the IC50 at HPK1 (MAP4K1) and at RET was 0.1 to 10 µM in each case.
As for `CNc1nc(C)c2c(n1)N1CCN=C1C(c1cc(NC(=O)c3cc(C(F)(F)F)ccn3)ccc1C)=C2` [Compound 122, N-(4-methyl-3-(4-methyl-2-(methylamino)-8,9-dihydroimidazo[1′,2′:1,6]pyrido[2,3-d]pyrimidin-6-yl)phenyl)-4-(trifluoromethyl)picolinamide], the IC50 against HPK1 (MAP4K1) and at RET was over 10 µM throughout.
On to `CNc1ncc2c(n1)N1C(=NC[C@H]1C)C(c1cc(NC(=O)c3cc(C(F)(F)F)ccn3)ccc1C)=C2` [Compound 129, (R)—N-(4-methyl-3-(9-methyl-2-(methylamino)-8,9-dihydroimidazo[1′,2′:1,6]pyrido[2,3-d]pyrimidin-6-yl)phenyl)-4-(trifluoromethyl)picolinamide], for which the IC50 at HPK1 (MAP4K1) and on RET was 0.1 to 10 µM each time.
As to `CNc1ncc2c(n1)N1C(=NC[C@@H]1C)C(c1cc(NC(=O)c3cc(C(F)(F)F)ccn3)ccc1C)=C2` [Compound 130, (S)—N-(4-methyl-3-(9-methyl-2-(methylamino)-8,9-dihydroimidazo[1′,2′:1,6]pyrido[2,3-d]pyrimidin-6-yl)phenyl)-4-(trifluoromethyl)picolinamide], the IC50 on HPK1 (MAP4K1) and on RET was under 0.1 µM throughout.
For `CNc1ncc2c(n1)N1CCN=C1C(c1cc(NC(=O)c3cc(C(F)(F)F)ccn3)ccc1F)=C2` [Compound 135, N-(4-fluoro-3-(2-(methylamino)-8,9-dihydroimidazo[1′,2′:1,6]pyrido[2,3-d]pyrimidin-6-yl)phenyl)-4-(trifluoromethyl)picolinamide], the IC50 at HPK1 (MAP4K1) is 0.1 to 10 µM; at RET, under 0.1 µM.
For `CNc1ncc2c(n1)N1CCN=C1C(c1cc(NC(=O)c3cn(C(C)C)c(=O)n(-c4ccc(F)cc4)c3=O)ccc1C)=C2` [Compound 193, 3-(4-fluorophenyl)-1-isopropyl-N-(4-methyl-3-(2-(methylamino)-8,9-dihydroimidazo[1′,2′:1,6]pyrido[2,3-d]pyrimidin-6-yl)phenyl)-2,4-dioxo-1,2,3,4-tetrahydropyrimidine-5-carboxamide], the IC50 on HPK1 (MAP4K1) was 0.1 to 10 µM; on Axl it was over 10 µM.
Taken in the same sequence, the figures for `CNc1ncc2c(n1)N1CCN=C1C(c1ccc(C(=O)Nc3cc(C(F)(F)F)ccn3)cc1C)=C2` [Compound 276, 3-methyl-4-(2-(methylamino)-8,9-dihydroimidazo[1′,2′:1,6]pyrido[2,3-d]pyrimidin-6-yl)-N-(4-(trifluoromethyl)pyridin-2-yl)benzamide] were 0.1 to 10 µM and over 10 µM.
For `CNc1ncc2c(n1)N1CCN=C1C(c1cc(NS(=O)(=O)c3cccc(C(F)(F)F)c3)c(F)cc1C)=C2` [Compound 285, N-(2-fluoro-4-methyl-5-(2-(methylamino)-8,9-dihydroimidazo[1′,2′:1,6]pyrido[2,3-d]pyrimidin-6-yl)phenyl)-3-(trifluoromethyl)benzenesulfonamide], the concentration for half-maximal inhibition (IC50) at c-Kit and on Axl was over 10 µM each time.
With `CNc1ncc2c(n1)N1CCN=C1C(c1c(C)ccc(NS(=O)(=O)c3ccccc3Cl)c1F)=C2` [Compound 287, 2-chloro-N-(2-fluoro-4-methyl-3-(2-(methylamino)-8,9-dihydroimidazo[1′,2′:1,6]pyrido[2,3-d]pyrimidin-6-yl)phenyl)benzenesulfonamide], the IC50 was 0.1 to 10 µM on c-Kit and under 0.1 µM at Axl.
In the case of `CNc1ncc2c(n1)N1CCN=C1C(c1cc(NS(=O)(=O)c3ccccc3F)ccc1C)=C2` [Compound 289, 2-fluoro-N-(4-methyl-3-(2-(methylamino)-8,9-dihydroimidazo[1′,2′:1,6]pyrido[2,3-d]pyrimidin-6-yl)phenyl)benzenesulfonamide], the IC50 on c-Kit and on Axl was over 10 µM throughout.
For the compound `CNc1ncc2c(n1)N1CCN=C1C(c1cc(NC(=O)Nc3cccc(C(F)(F)F)c3)c(F)cc1C)=C2` [Compound 330, 1-(2-fluoro-4-methyl-5-(2-(methylamino)-8,9-dihydroimidazo[1′,2′:1,6]pyrido[2,3-d]pyrimidin-6-yl)phenyl)-3-(3-(trifluoromethyl)phenyl)urea], the IC50 against HPK1 (MAP4K1) is 0.1 to 10 µM; on c-Kit, under 0.1 µM; at Axl it was over 10 µM.
As to `CNc1ncc2c(n1)N1CCN=C1C(c1cc(NC(=O)Nc3cc(C(F)(F)F)ccc3F)c(F)cc1C)=C2` [Compound 333, 1-(2-fluoro-4-methyl-5-(2-(methylamino)-8,9-dihydroimidazo[1′,2′:1,6]pyrido[2,3-d]pyrimidin-6-yl)phenyl)-3-(2-fluoro-5-(trifluoromethyl)phenyl)urea], the IC50 on c-Kit was under 0.1 µM; on Axl it was over 10 µM.
Taken in the same sequence, the figures for `CNc1ncc2c(n1)N1CCN=C1C(c1cc(NC(=O)Nc3cc(C(F)(F)F)ccc3Cl)c(F)cc1C)=C2` [Compound 335, 1-(2-chloro-5-(trifluoromethyl)phenyl)-3-(2-fluoro-4-methyl-5-(2-(methylamino)-8,9-dihydroimidazo[1′,2′:1,6]pyrido[2,3-d]pyrimidin-6-yl)phenyl)urea] were under 0.1 µM and over 10 µM.
Regarding `CNc1ncc2c(n1)N1CCN=C1C(c1c(C)ccc(NC(=O)Nc3ccccc3Cl)c1F)=C2` [Compound 336, 1-(2-chlorophenyl)-3-(2-fluoro-4-methyl-3-(2-(methylamino)-8,9-dihydroimidazo[1′,2′:1,6]pyrido[2,3-d]pyrimidin-6-yl)phenyl)urea], the IC50 was 0.1 to 10 µM at c-Kit and over 10 µM at Axl.
